Assay results taken from patent US20060079534A1, “Cell division inhibitor and a production method thereof” (priority 2000, published 2006).
≈ marks a conversion by molar mass, not a printed value.

Columns and labels:
[1] = system: cleavage division of Hemicentrotus pulcherrimus; test: Inhibition test for cell division (cleavage division); assay type: in vivo; details: observed 4 hours after fertilization; * = no activity at the indicated concentration
Description: (§1) Physiological activity of each dehydrodiketopiperazine will be described below. Each dehydrodiketopiperazine was tested for its inhibitory activity against cleavage division of Hemicentrotus pulcherrimus, Scaphechinus mirabilis and Temnopleurus toreumaticus as a cell division inhibitory activity. The test was carried out as described in The Journal of Antibiotics, Vol. 52, p. 1017 (1999). However, stages at which the first cleavage division occurs vary among sea urchins, so that inhibition of the cleavage division was observed after 4 hours of fertilization in the tests using Hemicentrotus pulcherrimus and Scaphechinus mirabilis, and after one hour of fertilization in the test using Temnopleurus toreumaticus, respectively.

[2] = system: cleavage division of Scaphechinus mirabilis; test: as above; assay type: in vivo; details: observed 4 hours after fertilization; * = no activity at the indicated concentration
Description: as §1

[3] = system: cleavage division of Temnopleurus toreumaticus; test: as above; assay type: in vivo; details: observed one hour after fertilization; * = no activity at the indicated concentration
Description: as §1

[4] = system: tumor; details: cited from earlier work
[5] = system: tubulin; details: cited from earlier work
[6] = system: cancer cell transplanted model animal; details: cited from earlier work
[7] = system: cleavage division of Hemicentrotus pulcherrimus, Scaphechinus mirabilis and Temnopleurus toreumaticus; test: Comparison of cell division inhibitory activity across the sea urchin tests; assay type: in vivo, sea urchins; details: ratio of MIC values
Description: as §1

[8] = system: dehydrogenase (cell-free extract); test: Amount of dehydrogenation of each substrate by enzyme (change in absorbance at 600 nm due to coenzyme); assay type: biochemical, Streptomyces albulus KO23; details: relative value of change in absorbance at 600 nm, CFL set to 100; substrate 0.5 mM, 37° C.
[9] = system: bacteria; details: Fukushima et al. 1973; cited from earlier work
[10] = system: pronuclear fusion; details: Kobayashi et al. 1989; cited from earlier work
[11] = system: sea urchin embryo division; details: Kanzaki et al. 1999; cited from earlier work

Which “MIC Hemicentrotus pulcherrimus” value [1] does the source give for C=CC(C)(C)c1[nH]cnc1C=C1NC(=O)C(Cc2ccccc2)NC1=O (single isomer, unassigned; (+)) [(+)-phenylahistin, 3-{[5-(1,1-dimethyl-2-propenyl)imidazole-4-yl]methylene}-6-benzylpiperazine-2,5-dione] here?
Its value is 13 µg/mL (≈ 37.1 µM).

And the “MIC Scaphechinus mirabilis” value [2]?
The value was >13* μg/ml.

What about the “MIC Temnopleurus toreumaticus” value [3] of the same compound?
The value was 6.3 µg/mL (≈ 18 µM).

With C=CC(C)(C)c1[nH]cnc1C=C1NC(=O)C(Cc2ccccc2)NC1=O (single isomer, unassigned; (-)) [(−)-phenylahistin, 3-{[5-(1,1-dimethyl-2-propenyl)imidazole-4-yl]methylene}-6-benzylpiperazine-2,5-dione] as the compound, how does the “MIC Hemicentrotus pulcherrimus” value [1] read?
The value was 0.39 µg/mL (≈ 1.11 µM).

What about the “MIC Scaphechinus mirabilis” value [2] of the same compound?
Its value is 1.6 µg/mL (≈ 4.57 µM).

What about the “MIC Temnopleurus toreumaticus” value [3] of the same compound?
Its value is 0.2 µg/mL (≈ 0.571 µM).

And the “antitumor activity relative to (+)-phenylahistin” value ([4]; times stronger than (+)-phenylahistin, approx.)?
Its value is 30-100 times.

And the “inhibition of the polymerization of tubulin” value [5]?
The value was “inhibits the polymerization of tubulin”.

What about the antitumor effect [6] of the same compound?
The antitumor effect was “a certain degree of antitumor activity”.

With O=c1[nH]/c(=C\c2c[nH]cn2)c(=O)[nH]/c1=C\c1ccccc1 [(Z,Z)-tetradehydro-CFH, Z-tetradehydrocyclophenylalanylhistidyl] as the compound, how does the “MIC Hemicentrotus pulcherrimus” value [1] read?
The value was 0.78 µg/mL (≈ 2.78 µM).

What about the “MIC Scaphechinus mirabilis” value [2] of the same compound?
The value was 1.6 µg/mL (≈ 5.71 µM).

What about the “MIC Temnopleurus toreumaticus” value [3] of the same compound?
The value was 1.6 µg/mL (≈ 5.71 µM).

And the “inhibitory activity compared with CFH” value [7]?
The value was no less than 15 fold.

With O=C(O)CC1NC(=O)C(CC(=O)O)NC1=O (centres unmarked) [CDD] as the compound, how does the Amount of dehydrogenation [8] read?
Its Amount of dehydrogenation is 14.

Which Amount of dehydrogenation [8] does the source give for O=C(O)CCC1NC(=O)C(CCC(=O)O)NC1=O (centres unmarked) [CEE] here?
Its Amount of dehydrogenation is 14.

For O=C1N[C@@H](Cc2c[nH]cn2)C(=O)N[C@H]1Cc1ccccc1 [CFH, cyclophenylalanylhistidyl], which Amount of dehydrogenation [8] is on record?
The Amount of dehydrogenation was 44.

And the “MIC Hemicentrotus pulcherrimus” value [1]?
The value was >25* μg/ml.

And the “MIC Scaphechinus mirabilis” value [2]?
The value was >25* μg/ml.

And the “MIC Temnopleurus toreumaticus” value [3]?
Its value is >25* μg/ml.

For CC(C)C[C@@H]1NC(=O)[C@H](Cc2ccccc2)NC1=O [CFL], which Amount of dehydrogenation [8] is on record?
Its Amount of dehydrogenation is 100.

Which Amount of dehydrogenation [8] does the source give for CC(C)CC1NC(=O)C(Cc2ccc(O)cc2)NC1=O (centres unmarked) [CLY] here?
Its Amount of dehydrogenation is 14.

Which Amount of dehydrogenation [8] does the source give for CSCCC1NC(=O)C(CCSC)NC1=O (centres unmarked) [CMM] here?
The Amount of dehydrogenation was 27.

With CC(C)/C=c1\[nH]c(=O)/c(=C/c2ccccc2)[nH]c1=O [albonoursin, 3-(Z)-benzylidene-6-(Z)isobutylidene-2,5-piperazine dione] as the compound, how does the “MIC Hemicentrotus pulcherrimus” value [1] read?
The value was 6.3 µg/mL (≈ 24.6 µM).

What about the “MIC Scaphechinus mirabilis” value [2] of the same compound?
Its value is >13* μg/ml.

What about the “MIC Temnopleurus toreumaticus” value [3] of the same compound?
Its value is >25* μg/ml.

What about the antitumor activity ([4]; Fukushima et al. 1973) of the same compound?
Its antitumor activity is “has an antitumor activity”.

And the antibacterial activity [9]?
Its antibacterial activity is “antibacterial activity”.

What about the “inhibition of pronuclear fusion” value [10] of the same compound?
The value was “acts to inhibit the pronuclear fusion”.

For C=CC(C)(C)c1[nH]cnc1/C=c1\[nH]c(=O)/c(=C/c2ccccc2)[nH]c1=O [dehydrophenylahistin, (Z, Z)-dehydrophenylahistin], which “MIC Hemicentrotus pulcherrimus” value [1] is on record?
Its value is 0.00038 µg/mL (≈ 0.00109 µM).

And the “MIC Scaphechinus mirabilis” value [2]?
Its value is 0.0061 µg/mL (≈ 0.0175 µM).

What about the “MIC Temnopleurus toreumaticus” value [3] of the same compound?
Its value is 0.0061 µg/mL (≈ 0.0175 µM).

Which “sea urchin embryo division inhibitory activity” value [11] does the source give for O=c1[nH]c(=Cc2ccccc2)c(=O)[nH]c1=Cc1ccccc1 [tetradehydrocyclo (Phe-Phe)] here?
The value was “exhibits sea urchin embryo division inhibitory activity”.
